Measured values as given in patent publication US20210041441A1, “DISCOVERY OF NOVEL MOLECULES AND REPURPOSED DRUGS FOR RAS FAMILY GTPases” (UNM Rainforest Innovations, priority 2018, published 2021).
Entries after “also recorded” stand apart in the source; their conditions may differ. Where a name gives a salt, the structure may show the parent alone. Each block holds one compound with its values, some of them ahead of it.

What was measured:
[1] = system: H-Ras, H-RasG12V, Rab and Rho subfamilies; conditions: earlier studies; cited from earlier work
Q61 KRas mutants = experiment: Multiplex flow cytometry Bodipy FL-GTP binding, compound dose response, Q61 mutants; design: species or system Human; conditions: 10 nM Bodipy FL-GTP
Protocol: Bead Coupling: 4 μm diameter, glutathione-beads (GSH-beads), distinguished by ten different intensities of red fluorescence (varying by several orders of magnitude of emission at 665±10 nm with excitation at 635 nm) were obtained by special order from Duke Scientific Corp. Each polystyrene bead set is supplied at 1.4×10^8 beads/ml with approximately 1.2×10^6 glutathione sites per bead (determined by using GST—green fluorescent protein^42). Prior to incubation with individual GST-GTPase fusion proteins, an appropriate volume of each bead slurry was incubated for 30 minutes at room temperature in assay buffer (20 mM HEPES pH 7.5, 125 μM […], 1 mM MgCl2, 0.5 mM EDTA pH 8.0, 0.01% NP-40) supplemented with 1 mM dithiothreitol and 0.1% BSA. Following this initial incubation, passivated beads were collected by centrifugation and resuspended in assay buffer with individual GST-GTPase fusion proteins at a final concentration of […]. Overnight coupling reactions were carried out at 4° C. with rotation. The amount of each bead type used for coupling and the final volume of the coupling reaction was determined by the experimental protocol. Typically, bead sets are used at a final concentration of 200 bead/μL. To remove unbound GST-GTPase, bead sets were washed twice by centrifugation with ice-cold assay buffer. Individually coated beads were pooled together and kept cold in an appropriate volume before use in binding assays. Bead-bound proteins are sufficiently stable to study secondary interactions between GTPase-GST chimera's and Bodipy-FL GTP^54. Note that an extra GSH-bead set is included that is not protein coupled. This set serves as a ‘scavenger’ for proteins that might dissociate during the binding assay.
For assay screening plates, compound libraries were first dispensed into columns 3-22 using a Labcyte 555 Echo Acoustic Dispenser (San Jose, Calif.) for a final concentration of 10 μM. An equal volume (10 nL) of DMSO was added to the vehicle control wells (column 2). Following the addition of library compounds, 2 μL of assay buffer was added and the plates were mixed before addition of 5 μL of the protein-coupled bead mixtures; 10 μL of assay buffer was added to empty wells in columns 1 and 24. Empty wells serve as wash wells between compound wells and control wells. Plates were mixed and incubated on a rotator for 30 minutes at 4° C. before the addition of 3 μL of Bodipy FL-GTP resulting in a final concentration 10 nM Bodipy FL-GTP. Plates were mixed and incubated for 1 hour at 4° C. Negative controls, containing bead mixtures, Bodipy FL-GTP, and 30 μM unlabeled GTP were assayed separately. Dose response plates were assembled similarly.
Data Acquisition: Assay plates were sampled using the HyperCyt™ high throughput flow cytometry platform (Intellicyt; Albuquerque, N. Mex.). During sampling, the probe moves from well to well and samples 1-2 μL from each well with 0.4 sec transit time in the air before sampling the next well. The resulting sample stream consisting of 384 bubble-separated samples is delivered to an Accuri C6 flow cytometer (BD Biosciences; San Jose, Calif.). Bodipy FL-GTP fluorescence is excited at 488 nm and detected with a 533/30 bandpass filter. […] Gating based on red fluorescence emission distinguishes the separately coated beads. […]

[2] = system: Ras family GTPases (KRas WT, G12v, G13d, G12a, G12c, G12d, Q61H, Q61L, Q61R; HRas WT, HRas G12v; CDC42 WT, CDC42 L61; Rac1 WT, Rac1 L61); experiment: Multiplex flow cytometry Bodipy FL-GTP binding, compound screen and dose response; conditions: for activity or affinity relative to other compounds / selectivity among GTPases (RAS vs non-RAS, individual proteins): multiplex dose response; for class of modulation of Bodipy-GTP binding to Ras family GTPases (pan activator, pan inhibitor, selective inhibitor, mixed activity modulator): multiplex, 10 nM Bodipy FL-GTP, compound 100-0.015 μM, normalized to DMSO
Protocol: Following this initial incubation, passivated beads were collected by centrifugation and resuspended in assay buffer with individual GST-GTPase fusion proteins at a final concentration of 1 M. Overnight coupling reactions were carried out at 4° C. with rotation. The amount of each bead type used for coupling and the final volume of the coupling reaction was determined by the experimental protocol. Typically, bead sets are used at a final concentration of 200 bead/μL. To remove unbound GST-GTPase, bead sets were washed twice by centrifugation with ice-cold assay buffer. Individually coated beads were pooled together and kept cold in an appropriate volume before use in binding assays. Bead-bound proteins are sufficiently stable to study secondary interactions between GTPase-GST chimera's and Bodipy-FL GTP^54. Note that an extra GSH-bead set is included that is not protein coupled. This set serves as a ‘scavenger’ for proteins that might dissociate during the binding assay.
Data Acquisition: Assay plates were sampled using the HyperCyt™ high throughput flow cytometry platform (Intellicyt; Albuquerque, N. Mex.). During sampling, the probe moves from well to well and samples 1-2 μL from each well with 0.4 sec transit time in the air before sampling the next well. […] Plate data are acquired as time-resolved files that are parsed by software-based well identification algorithms, segregating individual well data that is merged with compound library files to determine compound activity in each well. Gating based on red fluorescence emission distinguishes the separately coated beads. Plate performance was validated using the Z-prime calculation^58.
Dose response data points were fitted by Prism® software (GraphPad Software Inc., San Diego, Calif.) using nonlinear least-squares regression in a sigmoidal dose-response model with variable slope, also known as the 4-parameter logistic equation.
Each well of an assay plate contained 10 sets of beads with variable red fluorescent intensities. Nine protein-coupled bead sets, carrying the different GST-KRas proteins were combined with an uncoupled GSH-bead that serves as a scavenger for GST-proteins that might dissociate during the assay. Bead mixtures were dispensed into individual wells of a 384-well assay plate and incubated with fluorescent GTP in the presence of library compounds. The final concentration of reagents in each assay well was 10 μM compound, 10 nM Bodipy FL-GTP, and 0.1% DMSO. Each bead set was added at 200 beads/μL. Each plate was analyzed both in forward (starting with A1) and reverse direction to account for fluorescent compounds that can carryover during sampling and effect subsequent sample values. […] Excess GTP containing wells were evaluated separately and were used, along with the DMSO control wells, to calculate a Z′ value for each bead set. […] A secondary single point evaluation was performed on these identified primary hits.

[3] = system: KRas G12v, HRas G12V, Kras Q61R, Rac1 L61, CDC42; experiment: Equilibrium kinetics assays, real-time Bodipy FL-GTP association and dissociation; assay type: binding, Human; conditions: for displacement of pre-bound Bodipy FL-GTP: pre-binding at 4° C. or RT in the presence of Mg2+
Protocol: Equilibrium Kinetics Assays: GTPase-coupled beads were prepared as described above and were kept on ice until used. Reactions were performed at room temperature in amber micro-centrifuge tubes in an appropriate volume of assay buffer. Bead mixtures were initially incubated on a rotator with Guanabenz acetate (100 μM) or DMSO for 30 min at 4° C. prior to the addition of 1 nM Bodipy FL-GTP. Real-time binding kinetics was recorded using an Accuri C6 flow cytometer. Binding association was followed for 15 minutes at which time excess GTP was added. Disassociation kinetics was followed for an additional 25 minutes. Data was analyzed using GraphPad Prism software. The association time course was fitted to a two phase exponential association and the dissociation time course was fitted to a two phase decay (exponential).
To determine mechanism of action, we evaluated binding and dissociation of Bodipy FL-GTP in real-time kinetic experiments in the presence of Guanabenz acetate or GTP. Tests included pre-binding of Bodipy-FL GTP at 4′ C. or RT in the presence of Mg^2+.
It was then elected to perform association rate analysis, using the order of addition of reagents used in screening, where guanabenz was added first, incubated at 4° C., then Bodipy FL-GTP was added at room temperature.

GTPases (Rac1 and Cdc42) = conditions: in cells, earlier studies; read-out: IC50 values for inhibitory activity against the GTPases; cited from earlier work
GTPases = conditions: cited from earlier work
[4] = target: KRas proteins (Wild type, G12v, G13d, G12a, G12c, G12d, Q61L, and Q61R); experiment: Dose dependent Bodipy FL-GTP binding assay, KRas multiplex; design: species or system Human; conditions: separate KRas proteins, 1 hour at 4° C.; read-out: binding affinities
From the text: Bead Coupling: 4 μm diameter, glutathione-beads (GSH-beads), distinguished by ten different intensities of red fluorescence (varying by several orders of magnitude of emission at 665±10 nm with excitation at 635 nm) were obtained by special order from Duke Scientific Corp. Each polystyrene bead set is supplied at 1.4×10^8 beads/ml with approximately 1.2×10^6 glutathione sites per bead (determined by using GST—green fluorescent protein^42). […] The amount of each bead type used for coupling and the final volume of the coupling reaction was determined by the experimental protocol. […]
Dose Dependent Bodipy FL-GTP Binding Assays: For dose dependence binding assays, GTPase-coupled bead sets were incubated on a rotator for 1 hour at 4° C. with varying concentrations of Bodipy FL-GTP (0.3-300 nM). […] Non-specific binding of Bodipy-FL GTP was assessed by incubating coupled beads with excess GTP prior to the addition of the Bodipy analogue. […]
Assay Plate Assembly: Plate assays were performed in 384-well microtiter plates (Greiner Bio-one, #784101); plates were assembled using a BioTek MultiFlo™ Microplate Dispenser. For dose-dependent Bodipy FL-GTP binding assays, total and non-specific binding were assessed by pre-incubation (30 min/4° C.) in the absence or presence of 30 μM GTP, respectively. […]

Compound: CC1(C)Cc2c(sc(NC(=S)NC(=O)c3ccccc3)c2C(=O)O)CO1 [CID1067700]
inhibitory activity on guanine nucleotide binding [1]: inhibitory activity against H-Ras and H-RasG12V; also recorded: broad spectrum inhibitor of the Rab and Rho subfamilies; also recorded: competitive inhibitor of nucleotide binding

Compound: CN(C)CC/C=C1/c2ccccc2Sc2ccc(Cl)cc21 [Chlorprothixene hydrochloride]
effect on GTP binding to Q61 KRas mutants (Q61 KRas mutants): not to Q61 KRas mutants
activity or affinity relative to other compounds [2]: most active
selectivity among GTPases (RAS vs non-RAS, individual proteins) [2]: selective for KRas WT, the KRas G12 mutants, and the HRas proteins
class of modulation of Bodipy-GTP binding to Ras family GTPases (pan activator, pan inhibitor, selective inhibitor, mixed activity modulator) ([2]; hydrochloride): selective inhibitors
class of modulation of Bodipy-GTP binding to Ras family GTPases (pan activator, pan inhibitor, selective inhibitor, mixed activity modulator) ([2]; listed as chlorprothixene hydrochloride, hydrochloride): Selective inhibitors
class of modulation of Bodipy-GTP binding to Ras family GTPases (pan activator, pan inhibitor, selective inhibitor, mixed activity modulator) ([2]; listed as chlorproxithene, hydrochloride): selective inhibition

Compound: N=C(N)N/N=C/c1c(Cl)cccc1Cl [Guanabenz acetate]
effect on GTP binding to Q61 KRas mutants (Q61 KRas mutants): not to Q61 KRas mutants
association of Bodipy FL-GTP ([3]; guanabenz added first at 4° C., then Bodipy FL-GTP at room temperature, KRas G12v and HRas G12V vs Kras Q61R, Rac1 L61 and CDC42): Dramatic differences in association
displacement of pre-bound Bodipy FL-GTP [3]: not able to displace Bodipy FL-GTP
dissociation of Bodipy FL-GTP ([3]; stable GTPases in the absence of Mg): did not induce dissociation
selectivity among GTPases (RAS vs non-RAS, individual proteins) [2]: selective for KRas WT, the KRas G12 mutants, and the HRas proteins
activity or affinity relative to other compounds ([2]; listed as guanabenz acetate): most active; also recorded: comparable activity to a recently described KRas inhibitor with low μM affinity
selectivity among GTPases (RAS vs non-RAS, individual proteins) ([2]; listed as guanabenz acetate): does not appear to limit selectivity to G12D
class of modulation of Bodipy-GTP binding to Ras family GTPases (pan activator, pan inhibitor, selective inhibitor, mixed activity modulator) [2]: selective inhibitors
class of modulation of Bodipy-GTP binding to Ras family GTPases (pan activator, pan inhibitor, selective inhibitor, mixed activity modulator) ([2]; listed as guanabenz acetate): Selective inhibitors

Compound: O=C(c1ccccc1)c1ccc2n1CC[C@H]2C(=O)O [R-ketorolac]
IC50 (GTPases (Rac1 and Cdc42)): 500 to 1000 nM

Compound: O=C(c1ccccc1)c1ccc2n1CCC2C(=O)O (stereo not drawn) [ketorolac]
reported activity (GTPases): inhibitors

Compound: CSc1ccc(/C=C2/C(C)=C(CC(=O)O)c3cc(F)ccc32)cc1 [sulindac sulfide]
reported activity (GTPases): inhibitors

The next lines start with results.

displacement of pre-bound Bodipy FL-GTP [3]: could be displaced by GTP
Compound: Nc1nc2c(ncn2[C@@H]2O[C@H](COP(=O)(O)OP(=O)(O)OP(=O)(O)O)[C@@H](O)[C@H]2O)c(=O)[nH]1 [GTP]

effect on GTP binding to Q61 KRas mutants (Q61 KRas mutants): not to Q61 KRas mutants
class of modulation of Bodipy-GTP binding to Ras family GTPases (pan activator, pan inhibitor, selective inhibitor, mixed activity modulator) ([2]; listed as NSC663284): Selective inhibitors
Compound: O=C1C(Cl)=C(NCCN2CCOCC2)C(=O)c2ncccc21 [NSC 663284]

effect on GTP binding to Q61 KRas mutants (Q61 KRas mutants): activates Q61 KRas mutants
selectivity among GTPases (RAS vs non-RAS, individual proteins) [2]: RAS activator, non-RAS inhibitor
class of modulation of Bodipy-GTP binding to Ras family GTPases (pan activator, pan inhibitor, selective inhibitor, mixed activity modulator) [2]: modulators with mixed activity
class of modulation of Bodipy-GTP binding to Ras family GTPases (pan activator, pan inhibitor, selective inhibitor, mixed activity modulator) ([2]; listed as SF1760): mixed activity
Compound: CC(C)(C)C(=O)Nc1ccc2c(c1)C(=O)C(=O)c1ccccc1-2 [SF1670]

effect on GTP binding to Q61 KRas mutants (Q61 KRas mutants): not to Q61 KRas mutants
class of modulation of Bodipy-GTP binding to Ras family GTPases (pan activator, pan inhibitor, selective inhibitor, mixed activity modulator) ([2]; hydrochloride): selective inhibitors
Compound: CN1CCN(CCCN2c3ccccc3Sc3ccc(C(F)(F)F)cc32)CC1 [Trifluperazine Hydrochloride]
class of modulation of Bodipy-GTP binding to Ras family GTPases (pan activator, pan inhibitor, selective inhibitor, mixed activity modulator) ([2]; listed as trifluoperazine, Hydrochloride): Selective inhibitors; also recorded: weak inhibition

Kd [4]: 1 to 50 nM
Compound: Guanosine 5′-Triphosphate, BODIPY™ FL 2′-(or-3′)-O-(N-(2-Aminoethyl) Urethane), Trisodium Salt [Bodipy FL-GTP]
